# Assay results reported in patent publication US9028845B2, “Chimeric immunomodulatory compounds and methods of using the same-IV” (Dynavax Technologies Corporation, priority 2001, dated 2015).
# Tested on: human PBMCs
# Assay: Human PBMC cytokine response assay (IFN-γ and IFN-α in cell-free medium by ELISA), with or without cPLGA
# Format: cell-based
# [1] = Donor 5, 20 μg/ml (mixtures: 20 μg/ml total), 24 h
# [2] = Donor 6, 20 μg/ml (mixtures: 20 μg/ml total), 24 h
substance,measurement,setting,value
"5′-TGACTGTGAACGTTCGAGATGA-3′ (SEQ ID NO: 2) [Compound P-6, reference compound]",IFN-α (pg/ml) Donor 1,"Donor 1, 20 μg/ml, 24 h",401 pg/mL
same,IFN-γ (pg/ml) Donor 1,"Donor 1, 20 μg/ml, 24 h",2180 pg/mL
same,IFN-α (pg/ml) Donor 2,"Donor 2, 20 μg/ml, 24 h",39 pg/mL
same,IFN-γ (pg/ml) Donor 2,"Donor 2, 20 μg/ml, 24 h",669 pg/mL
same,IFN-α (pg/ml) Donor 3,"Donor 3, 20 μg/ml, 24 h",28 pg/mL
same,IFN-γ (pg/ml) Donor 3,"Donor 3, 20 μg/ml, 24 h",99 pg/mL
same,IFN-α (pg/ml) Donor 4,"Donor 4, 20 μg/ml, 24 h",106 pg/mL
same,IFN-γ (pg/ml) Donor 4,"Donor 4, 20 μg/ml, 24 h",223 pg/mL
same,IFN-α (pg/ml) Donor 5,[1],54 pg/mL
same,IFN-γ (pg/ml) Donor 5,[1],73 pg/mL
same,IFN-α (pg/ml) Donor 6,[2],482 pg/mL
same,IFN-γ (pg/ml) Donor 6,[2],1170 pg/mL
same,IFN-α (pg/ml) Donor 7,"Donor 7, 20 μg/ml, 24 h",4 pg/mL
same,IFN-γ (pg/ml) Donor 7,"Donor 7, 20 μg/ml, 24 h",15 pg/mL
same,IFN-α (pg/ml) Donor 8,"Donor 8, 20 μg/ml, 24 h",59 pg/mL
same,IFN-γ (pg/ml) Donor 8,"Donor 8, 20 μg/ml, 24 h",367 pg/mL
same,IFN-α Donor 9,"Donor 9, 20 μg/ml, 24 h",12
same,IFN-γ Donor 9,"Donor 9, 20 μg/ml, 24 h",66
same,IFN-α Donor 10,"Donor 10, 20 μg/ml, 24 h",28
same,IFN-γ Donor 10,"Donor 10, 20 μg/ml, 24 h",20
same,IFN-α Donor 11,"Donor 11, 20 μg/ml, 24 h",12
same,IFN-γ Donor 11,"Donor 11, 20 μg/ml, 24 h",72
same,IFN-α Donor 12,"Donor 12, 20 μg/ml, 24 h",12
same,IFN-γ Donor 12,"Donor 12, 20 μg/ml, 24 h",23
same,IFN-α,"Example 58, 0.8 ug/ml, donor 1",52 pg/mL
same,IFN-α,"Example 58, 0.8 ug/ml, donor 2",52 pg/mL
same,IFN-α,"Example 58, 0.8 ug/ml, donor 3",52 pg/mL
same,IFN-α,"Example 58, 0.8 ug/ml, donor 4",52 pg/mL
same,IFN-α mean,"Example 58, 0.8 ug/ml, mean of four individuals",52 pg/mL
same,IFN-α,"Example 58, 4 ug/ml, donor 1",115 pg/mL
same,IFN-α,"Example 58, 4 ug/ml, donor 2",52 pg/mL
same,IFN-α,"Example 58, 4 ug/ml, donor 3",52 pg/mL
same,IFN-α,"Example 58, 4 ug/ml, donor 4",65 pg/mL
same,IFN-α mean,"Example 58, 4 ug/ml, mean of four individuals",71 pg/mL
same,IFN-α,"Example 58, 20 ug/ml, donor 1",116 pg/mL
same,IFN-α,"Example 58, 20 ug/ml, donor 2",64 pg/mL
same,IFN-α,"Example 58, 20 ug/ml, donor 3",52 pg/mL
same,IFN-α,"Example 58, 20 ug/ml, donor 4",52 pg/mL
same,IFN-α mean,"Example 58, 20 ug/ml, mean of four individuals",71 pg/mL
same,IFN-α,"Example 59, 0.8 ug/ml, donor 48",102 pg/mL
same,IFN-α,"Example 59, 0.8 ug/ml, donor 177",102 pg/mL
same,IFN-α,"Example 59, 0.8 ug/ml, donor 272",102 pg/mL
same,IFN-α,"Example 59, 0.8 ug/ml, donor 273",102 pg/mL
same,IFN-α mean,"Example 59, 0.8 ug/ml, mean of four donors",102 pg/mL
same,IFN-α,"Example 59, 4 ug/ml, donor 48",102 pg/mL
same,IFN-α,"Example 59, 4 ug/ml, donor 177",245 pg/mL
same,IFN-α,"Example 59, 4 ug/ml, donor 272",102 pg/mL
same,IFN-α,"Example 59, 4 ug/ml, donor 273",102 pg/mL
same,IFN-α mean,"Example 59, 4 ug/ml, mean of four donors",138 pg/mL
same,IFN-α,"Example 59, 20 ug/ml, donor 48",256 pg/mL
same,IFN-α,"Example 59, 20 ug/ml, donor 177",323 pg/mL
same,IFN-α,"Example 59, 20 ug/ml, donor 272",102 pg/mL
same,IFN-α,"Example 59, 20 ug/ml, donor 273",102 pg/mL
same,IFN-α mean,"Example 59, 20 ug/ml, mean of four donors",196 pg/mL
same,IFN-α,"Table 9, donor 28089",0 pg/mL
same,IFN-γ,"Table 9, donor 28089",84 pg/mL
same,IFN-α,"Table 9, donor 28090",62 pg/mL
same,IFN-γ,"Table 9, donor 28090",255 pg/mL
same,IFN-α,"Table 9, donor 28098",105 pg/mL
same,IFN-γ,"Table 9, donor 28098",745 pg/mL
same,IFN-α,"Table 9, donor 28099",105 pg/mL
same,IFN-γ,"Table 9, donor 28099",125 pg/mL
same,IFN-α mean,"Table 9, mean of donors",68 pg/mL
same,IFN-γ mean,"Table 9, mean of donors",302 pg/mL
same,IFN-α,"Table 10, donor 28042",27 pg/mL
same,IFN-γ,"Table 10, donor 28042",495 pg/mL
same,IFN-α,"Table 10, donor 28043",85 pg/mL
same,IFN-γ,"Table 10, donor 28043",1189 pg/mL
same,IFN-α,"Table 10, donor 28044",36 pg/mL
same,IFN-γ,"Table 10, donor 28044",925 pg/mL
same,IFN-α,"Table 10, donor 28045",21 pg/mL
same,IFN-γ,"Table 10, donor 28045",212 pg/mL
same,IFN-α mean,"Table 10, mean of donors",42 pg/mL
same,IFN-γ mean,"Table 10, mean of donors",705 pg/mL
same,IFN-α,"Table 11, donor 28042",9 pg/mL
same,IFN-γ,"Table 11, donor 28042",324 pg/mL
same,IFN-α,"Table 11, donor 28043",34 pg/mL
same,IFN-γ,"Table 11, donor 28043",1036 pg/mL
same,IFN-α,"Table 11, donor 28044",22 pg/mL
same,IFN-γ,"Table 11, donor 28044",529 pg/mL
same,IFN-γ,"Table 11, donor 28045",653 pg/mL
same,IFN-α mean,"Table 11, mean of donors",43 pg/mL
same,IFN-γ mean,"Table 11, mean of donors",636 pg/mL
same,IFN-α,"Table 13, donor 28156",52 pg/mL
same,IFN-γ,"Table 13, donor 28156",1132 pg/mL
same,IFN-α,"Table 13, donor 28157",484 pg/mL
same,IFN-γ,"Table 13, donor 28157",872 pg/mL
